Results as given in the supplement of paper PMC10307832.

Tests used:
Experiment in all cases: relative viability (nuclei count vs DMSO), 5 days (fraction); higher = more cells survive
NCI-H838 = system: NCI-H838
Outline: (§1)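 Lung cancer cell lines, seeded in 1536-well plates, were treated the following day by pin tool with a single drug or with five library-drug doses (not always all listed) in √10 steps on top of a fixed anchor-drug dose. Cells were fixed and nuclei stained in one step after 5 days, and nuclei were counted. Relative viability is the nuclei count for treated wells divided by that for vehicle wells, reported as medians of duplicate plates.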

HOP-62 = system: HOP-62
Outline: as §1

NCI-H596 = system: NCI-H596
Outline: as §1

NCI-H1650 = system: NCI-H1650
Outline: as §1

LOU-NH91 = system: LOU-NH91
Outline: as §1

NCI-H2087 = system: NCI-H2087
Outline: as §1

HCC-44 = system: HCC-44
Outline: as §1

ChaGo-K-1 = system: ChaGo-K-1
Outline: as §1

HCC-78 = system: HCC-78
Outline: as §1

A-427 = system: A-427
Outline: as §1

NCI-H2023 = system: NCI-H2023
Outline: as §1

NCI-H358 = system: NCI-H358
Outline: as §1

`O=c1[nH]c2ccccc2n1C1CCN(CCCC(c2ccc(F)cc2)c2ccc(F)cc2)CC1` [Pimozide] + O=C(c1cc(Cc2n[nH]c(=O)c3ccccc23)ccc1F)N1CCN(C(=O)C2CC2)CC1 [Olaparib] (partner 8 µM) showed a relative viability (NCI-H838; first compound 0.08 µM) of 0.772, a relative viability (NCI-H838; first compound 0.253 µM) of 0.757 and a relative viability (NCI-H838; first compound 0.8 µM) of 0.729. It also gave a relative viability (NCI-H838; first compound 2.53 µM) of 0.719, a relative viability (NCI-H838; first compound 8 µM) of 0.744 and a relative viability (HOP-62; first compound 0.08 µM) of 0.588. For the same molecule, the relative viability (HOP-62; first compound 0.253 µM) was 0.342, the relative viability (HOP-62; first compound 0.8 µM) was 0.356 and the relative viability (HOP-62; first compound 2.53 µM) was 0.39. It also gave a relative viability (HOP-62; first compound 8 µM) of 0.56, a relative viability (NCI-H596; first compound 0.08 µM) of 0.768 and a relative viability (NCI-H596; first compound 0.253 µM) of 0.755. The relative viability (NCI-H596; first compound 0.8 µM) was 0.663, the relative viability (NCI-H596; first compound 2.53 µM) was 0.745 and the relative viability (NCI-H596; first compound 8 µM) was 0.779. It also gave a relative viability (NCI-H1650; first compound 0.08 µM) of 0.775, a relative viability (NCI-H1650; first compound 0.253 µM) of 0.664 and a relative viability (NCI-H1650; first compound 0.8 µM) of 0.762. It also gave a relative viability (NCI-H1650; first compound 2.53 µM) of 0.962, a relative viability (NCI-H1650; first compound 8 µM) of 0.805 and a relative viability (LOU-NH91; first compound 0.08 µM) of 0.655. For the same molecule, the relative viability (LOU-NH91; first compound 0.253 µM) was 0.911, the relative viability (LOU-NH91; first compound 0.8 µM) was 0.866 and the relative viability (LOU-NH91; first compound 2.53 µM) was 0.962. For the same molecule, the relative viability (LOU-NH91; first compound 8 µM) was 0.971, the relative viability (NCI-H2087; first compound 0.08 µM) was 0.679 and the relative viability (NCI-H2087; first compound 0.253 µM) was 0.582. It also gave a relative viability (NCI-H2087; first compound 2.53 µM) of 0.579, a relative viability (NCI-H2087; first compound 8 µM) of 0.45 and a relative viability (HCC-44; first compound 0.08 µM) of 1. For the same molecule, the relative viability (HCC-44; first compound 0.253 µM) was 1.02, the relative viability (HCC-44; first compound 0.8 µM) was 0.938 and the relative viability (HCC-44; first compound 2.53 µM) was 0.973. For the same molecule, the relative viability (HCC-44; first compound 8 µM) was 0.931, the relative viability (ChaGo-K-1; first compound 0.08 µM) was 0.402 and the relative viability (ChaGo-K-1; first compound 0.253 µM) was 0.365. The relative viability (ChaGo-K-1; first compound 0.8 µM) was 0.433, the relative viability (ChaGo-K-1; first compound 2.53 µM) was 0.467 and the relative viability (ChaGo-K-1; first compound 8 µM) was 0.413. It also gave a relative viability (HCC-78; first compound 0.08 µM) of 0.832, a relative viability (HCC-78; first compound 0.8 µM) of 0.787 and a relative viability (HCC-78; first compound 2.53 µM) of 0.709. It also gave a relative viability (HCC-78; first compound 8 µM) of 0.749, a relative viability (A-427; first compound 0.08 µM) of 0.708 and a relative viability (A-427; first compound 0.253 µM) of 0.681. The relative viability (A-427; first compound 0.8 µM) was 0.661, the relative viability (A-427; first compound 2.53 µM) was 0.691 and the relative viability (A-427; first compound 8 µM) was 0.685. For the same molecule, the relative viability (NCI-H2023; first compound 0.08 µM) was 0.481, the relative viability (NCI-H2023; first compound 0.253 µM) was 0.47 and the relative viability (NCI-H2023; first compound 0.8 µM) was 0.444. The relative viability (NCI-H2023; first compound 2.53 µM) was 0.351, the relative viability (NCI-H2023; first compound 8 µM) was 0.348 and the relative viability (NCI-H358; first compound 0.08 µM) was 0.596. For the same molecule, the relative viability (NCI-H358; first compound 0.253 µM) was 0.583.
